Measured values: patent publication US20260109727A1, “RNA CONSTRUCTS AND USES THEREOF” (BioNTech SE, priority 2022, published 2026)

How the values were obtained:
human PBMCs = experiment: Cytokine/chemokine secretion in human PBMCs (MSD V-PLEX); format: cell-based
Procedure: Human buffy coats from healthy individuals were obtained from the Faculty of Medicine of Johannes Gutenberg University, Mainz and used to isolate peripheral blood mononuclear cells (PBMCs) on a Ficoll-Paque™ PLUS (Cytiva, Marlborough, MA, USA) density gradient. In preparation for mRNA transfection, cryopreserved PBMCs were thawed and seeded into 96-well plates at a density of 5×10^5 cells per well in 190 μL RPMI medium supplemented with 1% non-essential amino acids (NEAA), 1% sodium pyruvate and 10% Fetal Bovine Serum (Merck, Germany). Cells were maintained at 37° C. with 5% CO2 until transfection with 0.5, 1.5, 5.0 and 15 μg/ml lipoplex-formulated EPO mRNA (LPX-RNA), as described in Kranz, L. M., et al. (2016) Nature, 534, 396-401. The complexed RNA (10 μl per well) was added in triplicates and supernatants were collected at 24 h after transfection to perform single cell cytotoxicity assay and to measure the cytokine/chemokine profile. To determine the cell viability and the production of selected cytokines/chemokines, supernatants from human PBMCs transfected with LPX-RNA were subjected to XTT cytotoxicity test using Cell Proliferation Kit II (Sigma-Aldrich) and cytokine/chemokine profile analysis using the Meso Scale Discovery V-PLEX Custom Human Biomarkers Proinflammatory and Chemokine Panel (Meso Scale Diagnostics—MSD, Rockville, MD, USA) according to the manufacturer's instructions, respectively. In regards of cytokine/chemokine profile analysis, a sample dilution of 1:5 (supernatant:MSD diluent) was used in each experiment. The levels of IL-6 (Interleukin 6), TNF-α (Tumor necrosis factor alpha), IL-1 (Interleukin 1 beta), IFN-γ (Interferon gamma), MCP-1 (Monocyte Chemoattractant Protein-1), […] (Macrophage inflammatory protein 1 beta) and IL-10 (Interleukin 10) were quantified 24 h after the mRNA transfection. […] This low immunogenicity can be directly attributed to the nucleoside modifications incorporated into the mRNA. To illustrate this, cells treated with lipid-complexed U-containing mRNA capped with compound I′-1, CC114 and CC413 induced much higher proinflammatory cytokine/chemokine responses even at their lowest dose (0.5 μg/ml) when compared to m1Ψ-modified mRNA (FIG. 6).
To test the effect of the cap types and mRNA 5′end on immunogenicity in human peripheral blood monocyte cells (PBMCs) we compared changes in levels of cytokines and chemokines after application of Lipoplex (LPX)-formulated EPO mRNAs. First, we compared the impact of m1Ψ-mRNA capped with I′-6 containing a UAGU 5′end vs. CC413 (AGAAU 5′end) (FIG. 12). […] Second, we compared capped EPO uRNA with I′-6 or I′-1 (FIG. 14). In this case both mRNAs had the same TAGT 5′end. […] Thus, benefit of I′-6 in decreasing the immunogenicity and thus increasing safety was found when I′-6 was used.

[1] = tested on: human primary hepatocytes; experiment: EPO secretion in human primary hepatocytes transfected with TransIT-EPO mRNA (ELISA); format: cell-based
Procedure: To measure the translational efficiency of EPO mRNA capped with compound I′-1, compound I′-6, CC114, and CC413 in vitro, human primary hepatocytes were seeded into 96-well plates at a density of 2.5×10^4 cells per well and were transfected with mRNA samples (0.1 μg) complexed with TransIT reagent (Mirus Bio, Madison, WI, USA) in a final volume of 200 μL in InVitroGRO CP Medium (Sigma-Aldrich) supplemented with Thorpedo Antibiotic Mix (Sigma-Aldrich). To quantify EPO levels, the supernatant was collected at 1, 2, 3, 4, 5 and 6 day after transfection and EPO levels were analyzed by mouse Erythropoietin DuoSet ELISA kit (R&D Systems, Minneapolis, MN, USA) according to the manufacturer's instructions.
In each in vivo experiment in order to measure the translational efficiency and to determine the functionality of EPO mRNA capped with I′-1, I′-2, I′-3, I′-5, I′-6, I′-9, I′-12, I′-13, I′-16, CC114, and CC413 in vivo, female BALB/c mice from Jackson Laboratory (Bar Harbor, ME, USA) at the age of eight to ten weeks were used for in accordance with federal policies on animal research (Ethics approval number: G19-12-074). In each case, mice (n=3/group) were injected intravenously (i.v.) with 3 μg TransIT-complexed (Mirus Bio) EPO mRNAs in a final volume of 200 μL Dulbecco's modified Eagle medium (DMEM). Mice used as controls were injected with TransIT-reagent diluted in DMEM but without RNA. To measure hematocrits and EPO levels in the individual mice that were injected with EPO mRNA capped with I′-6, I′-1, CC114, and CC413 and complexed with TransIT-reagent, 18 μL of blood was collected at the indicated times (FIG. 8B) and centrifuged in Drummond microcaps glass capillary tubes (20 μl volume, Merck, Germany) as described (19). After determination of the hematocrit, capillary tubes were snapped open, and the plasma was collected to measure EPO levels and analyzed for mouse Erythropoietin DuoSet ELISA kit (R&D Systems) according to the manufacturer's instructions. […] EPO RNA containing m1Ψ modifications translated 2-3-fold, 5-fold, and 10-fold more than U-containing mRNAs at 6-24, 48 and 72 hours after injections, respectively. (FIG. 8A). […] To address translation of I′-6-capped mRNA in human primary hepatocytes, EPO level was measured from supernatants transfected using 0.1 μg/well TransIT-formulated I′-6- or CC114-capped uRNA (FIG. 13).
To test if various uridine (U) or pseudouridine (Ψ) derivatives of cap analogues can improve translation in human primary hepatocytes, we first measured EPO secretion after application of EPO-encoding Ψ-mRNA capped with compounds described herein analog bearing pseudouridine (I′-3) or CC413 (no modification). […] In addition, all tested modification bearing caps led to increase in EPO secretion at 24 h and 48 h when compared to the unmodified I′-1 (FIG. 16).

COC1C(OP(=O)(O)OC[C@H]2O[C@@H](c3cn(C)c(=O)[nH]c3=O)C(O)C2O)[C@@H](COP(=O)(O)OP(=O)([O-])OP(=O)(O)OC[C@H]2O[C@@H](n3c[n+](C)c4c(O)nc(N)nc43)C(O)C2OC)O[C@H]1n1cnc2c(N)ncnc21 (some centres unmarked) [I′-6, m^7G(^3′-OMe)pppA(2′-OMe)pm^1Ψ]
cytokines (IL-6, TNF-α, IL-1β, IFN-γ), compared with I′-1 (human PBMCs; EPO uRNA, same TAGT 5′end, 24 h after application): significantly lower | increase in levels of proinflammatory cytokines and chemokines, compared with CC413 (human PBMCs; LPX-formulated EPO mRNA, across the concentrations tested): less of an increase | MIP-1β, compared with CC413 (human PBMCs; LPX-m1Ψ-mRNA, 0.333 and 1 μg/well (1.7 and 5 μg/ml)): decrease | cytokines (IL-6, TNF-α, IL-1, IFN-γ), compared with CC413 (human PBMCs; LPX-m1Ψ-mRNA, 1 and 3 μg/well (5 and 15 μg/ml)): significant decrease | translation (EPO secretion) compared to CC413 ([1]; 0.1 μg/well TransIT-EPO mRNA, 24 hrs): higher translation | EPO secretion, I′-6- vs CC114-capped uRNA ([1]; 0.1 μg/well TransIT-formulated uRNA, 24 h, 48 h and 144 h): Increased secretion of EPO | level of secreted EPO compared to other caps (I′-9, I′-12, I′-16) ([1]; 24 h): increased level | translation compared to CC413 ([1]; m1Ψ-mRNA context): lower translation at later time points but in close to comparable translation
